Experimental data as given in patent US4798807A, “Monoclonal antibodies and method for detecting dioxins and dibenzofurans” (priority 1986, dated 1989).
Entries after “also recorded” stand apart in the source; their conditions may differ.

How the values were obtained:
[1] = biological target: monoclonal antibody DD-3; test: Competition ELISA with monoclonal antibody DD-3; type: binding, BALB/c mice; settings: competitor vs monoclonal antibody DD-3; plate coated with A-triCDD-RSA
Protocol: (§1) In this case the hybridomas were then screened for their ability to distinguish A-triCDD-BSA and A-triCDD-RSA from BSA and RSA. On the basis of this initial screen about 25 stable, antibody-producing colonies were isolated, subcloned, and frozen. The remaining clones were again screened for their abilities to recognize free TCDD in suspension. Experimentally, on the order of 10-100 nanograms of TCDD in hexane was dried, 0.5 ml of saline with BSA (1 mg/ml) was added and sonificated for 2 hrs. […] Identical procedures were followed for other dioxin isomers. A dilution series in microtiter plate wells was then made with the suspended TCDD, antibody adde, and the competition ELISA completed. Competition ELISA test procedures are discussed in detail in the following reference: Butt, W. R. (1984) "Practical Immunoassay: The State of the Art", Marcel Dekker, Inc., N.Y., N.Y.
(§2) A large part of the success that we have had in characterizing the binding specificities of our monoclonal antibodies comes from having developed a reliable competition ELISA protocol. Our preferred assay starts from stock solutions at 10 ppm in hexane of the various compounds listed in Table I. 10 μl of hexane solution is aliquoted into a small vial, evaporated under a stream of nitrogen gas, and 500 μl of a 1 mg/ml solution of BSA in phosphate buffered saline with 0.1% BSA is added. The vial is capped and placed in an ultrasonic cleaning waterbath for two hours. Two hours of sonification gives a more reproducible assay than does an hour. During the sonification, the hexane appears to evaporate completely, and one is left with an aqueous solution containing the dioxin. Microtiter plates coated with A-triCDD-RSA are blocked with a three percent solution of ovalbumin and a two-fold dilution series of sonificated dioxin-BSA is then made, covering the range 100 ppb-0.1 ppb. In each well of the plate 100 μl of the sonificated dioxin-BSA solution is mixed with n equal volume of antibody. The antibody partitions between the dioxin adsorbed to the BSA, and the A-tri-CDD-RSA on the plate.
(§3) A-TriCDD-RSA was adsorbed onto the surface of the wells of a microtiter plate. The various competitors listed were suspended in saline containing bovine serum albumin (BSA). These solutions were made by sonificating 10 μl of dioxin solution in hexane with 500 μl of saline-BSA. A dilution series of these dioxin-BSA solutions was then made covering the range of 100-0.2 ppb, and placed in the microtiter plate wells. An equal volume of DD-1 monoclonal antibody was then added, and allowed to react for 1 hour. Tne antibody binds either to the A-TriCDD-RSA on the plate or the dioxin in solution. After the hour, the solution phase is removed, the plate washed, and it is reincubated for an hour with peroxidase-conjugated goat-anti-mouse-immunoglobulins. A second washing is then done, and substrate (ABTS) added to the peroxidase. The enzyme-antibody conjugate and substrate function as a "developer", allowing the visualization of the DD-1 bound to the A-triCDD-RSA on the plate. Results are then expressed as a fraction of the response in wells with no competitor. […] At about 20 ppb of 2,3,7,8-TCDD the relative ELISA response is half of control, meaning that half the DD-1 antibody bound to the solution phase dioxin and half bound to the A-triCDD-RSA on the plate. For 1,2,3,7(8)-TCDD, 50% inhibition occurs at about 4 ppb, indicating the DD-1 prefers 1,2,3,7(8)-TCDD to 2,3,7,8-TCDD.
(§4) The FIGURE and Table II show representative competition data using several chlorinated compounds as competitors. From such data, one can determine the concentration required to inhibit antibody binding by 50% (I50). Table II lists the I50 for all compounds tested with the antibodies. In reporting these values, factors of two are about the limit of significance. […] The binding specificities of these antibodies are highly desirable, since they prefer the most toxic of the dioxin and dibenzofuran isomers.

[2] = biological target: monoclonal antibody DD-4; test: Competition ELISA with monoclonal antibody DD-4; type: binding, BALB/c mice; settings: competitor vs monoclonal antibody DD-4; plate coated with A-triCDD-RSA
Protocol: as §1, §2, §3, §4

[3] = biological target: monoclonal antibody DD-5; test: Competition ELISA with monoclonal antibody DD-5; type: binding, Biozzi mice; settings: competitor vs monoclonal antibody DD-5; plate coated with A-triCDD-RSA
Protocol: as §1, §2, §3, §4

[4] = biological target: monoclonal antibody DD-6; test: Competition ELISA with monoclonal antibody DD-6; type: binding, Biozzi mice; settings: competitor vs monoclonal antibody DD-6; plate coated with A-triCDD-RSA
Protocol: as §1, §2, §3, §4

[5] = biological target: monoclonal antibody DD-1; test: Competition ELISA with monoclonal antibody DD-1; type: binding, Biozzi mice; settings: for I50 (inhibits antibody binding by 50%): competitor vs monoclonal antibody DD-1, plate coated with A-triCDD-RSA; for concentration at which 50% inhibition occurs (relative ELISA response half of control): FIGURE, DD-1, competitor in saline-BSA, dilution series 100-0.2 ppb
Protocol: as §1, §2, §3, §4

[6] = test system: monoclonal antibodies DD-1, DD-3, DD-4, DD-5 and DD-6; test: Competition ELISA, statements for all antibodies together; type: binding, BALB/c and Biozzi mice
Protocol: as §1, §2, §3, §4

Compound | I50 (inhibits antibody binding by 50%) [1] [ng] | I50 (inhibits antibody binding by 50%) [2] [ng] | I50 (inhibits antibody binding by 50%) [3] [ng] | I50 (inhibits antibody binding by 50%) [4] [ng] | I50 (inhibits antibody binding by 50%) [5] [ng] | reactivity of all antibodies with competitor ([6]; up to the highest concentration tested (100 ppb)) | affinity / recognition by all antibodies ([6]; all antibodies) | concentration at which 50% inhibition occurs (relative ELISA response half of control) [5]
Oc1cc(Cl)c(Cl)cc1O [4,5-Dichlorocatechol] | > 2000 | > 2000 | > 2000 | > 2000 | 2000 |  |  | 
Clc1ccccc1 [Chlorobenzene] | > 2000 | > 2000 | > 2000 | > 2000 | > 2000 |  |  | 
OCC(Cl)(Cl)Cl [2,2,2-Tricholoroethanol, 2,2,2-Tricholoro-ethanol] | > 2000 | > 2000 | > 2000 | > 2000 | > 2000 |  |  | 
Clc1ccc2oc3c(Cl)c(Cl)c(Cl)c(Cl)c3c2c1Cl [1,2,3,4,8,9-Hexa-CDBF] | > 200 | > 200 | > 10 | > 150 | > 200 | either do not react or react only marginally |  | 
ClC1=C(Cl)C2(Cl)C3C(Cl)C=CC3C1(Cl)C2(Cl)Cl (stereo not shown) [Heptachlor] | > 2000 | > 2000 | > 2000 | > 2000 | > 2000 |  |  | 
Clc1cc2c(cc1Cl)Oc1cc(Cl)c(Cl)cc1O2 [2,3,7,8-TCDD, 2,3,7,8-tetrachlorodibenzo-p-dioxin] | 3 | 5 | 0.5 | 6 | 1 |  | slightly less affinity; also recorded: recognize | about 20 ppb
1,2,3,7,(8)-TCDD | 0.45 | 0.3 | 0.3 | 0.15 | 0.15 |  |  | about 4 ppb
Oc1c(Cl)c(Cl)c(Cl)c(Cl)c1Cl [Pentachlorophenol] | > 2000 | > 2000 | > 2000 | > 2000 | > 2000 |  |  | 
ClC1=C(Cl)C2(Cl)C3C4C=CC(C4)C3C1(Cl)C2(Cl)Cl (stereo not shown) [Aldrin] | > 2000 | > 2000 | > 2000 | > 2000 | > 2000 |  |  | 
